Measured values published in PubChem BioAssay (NCI).
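Values below derive from 48-hour exposures of cells grown in 96-well plates, with endpoints linearly interpolated between the two concentrations bracketing the appropriate inhibition level. The concentration for 50% growth inhibition is given as GI50. TGI denotes the concentration required for complete inhibition of growth.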

Legend:
Assay in all cases: NCI-60 cell line screen, 48 h
SF-268 CNS = system: SF-268 CNS
NCI-H460 lung = system: NCI-H460 lung
CCRF-CEM leukemia = system: CCRF-CEM leukemia
T-47D breast = system: T-47D breast
SK-MEL-28 melanoma = system: SK-MEL-28 melanoma
RXF 393 renal = system: RXF 393 renal
EKVX NSCLC = system: EKVX NSCLC
PC-3 prostate = system: PC-3 prostate
OVCAR-3 ovarian = system: OVCAR-3 ovarian
DU-145 prostate = system: DU-145 prostate
COLO 205 colon = system: COLO 205 colon
HT29 colon = system: HT29 colon
KM12 colon = system: KM12 colon
MALME-3M melanoma = system: MALME-3M melanoma
K-562 leukemia = system: K-562 leukemia
UACC-62 melanoma = system: UACC-62 melanoma
SN12C renal = system: SN12C renal
HL-60(TB) leukemia = system: HL-60(TB) leukemia
SK-MEL-5 melanoma = system: SK-MEL-5 melanoma
SR leukemia = system: SR leukemia
SK-OV-3 ovarian = system: SK-OV-3 ovarian
SF-295 CNS = system: SF-295 CNS
TK-10 renal = system: TK-10 renal
LOX IMVI melanoma = system: LOX IMVI melanoma
RPMI-8226 leukemia = system: RPMI-8226 leukemia
MCF7 breast = system: MCF7 breast
HS 578T breast = system: HS 578T breast
NCI-H522 lung = system: NCI-H522 lung
HOP-92 NSCLC = system: HOP-92 NSCLC
HCT-116 colon = system: HCT-116 colon
MDA-MB-231 breast = system: MDA-MB-231 breast
HCT-15 colon = system: HCT-15 colon
IGROV1 ovarian = system: IGROV1 ovarian
A549 NSCLC = system: A549 NSCLC
CAKI-1 renal = system: CAKI-1 renal
SW-620 colon = system: SW-620 colon
MOLT-4 leukemia = system: MOLT-4 leukemia
UO-31 renal = system: UO-31 renal
UACC-257 melanoma = system: UACC-257 melanoma
786-0 renal = system: 786-0 renal
OVCAR-4 ovarian = system: OVCAR-4 ovarian
SK-MEL-2 melanoma = system: SK-MEL-2 melanoma
SF-539 CNS = system: SF-539 CNS
U251 CNS = system: U251 CNS
HOP-62 NSCLC = system: HOP-62 NSCLC
HCC-2998 colon = system: HCC-2998 colon
SNB-19 CNS = system: SNB-19 CNS
OVCAR-8 ovarian = system: OVCAR-8 ovarian
BT-549 breast = system: BT-549 breast
NCI/ADR-RES ovarian = system: NCI/ADR-RES ovarian
M14 melanoma = system: M14 melanoma
SNB-75 CNS = system: SNB-75 CNS
NCI-H226 lung = system: NCI-H226 lung
NCI-H23 lung = system: NCI-H23 lung
ACHN renal = system: ACHN renal
OVCAR-5 ovarian = system: OVCAR-5 ovarian
A498 renal = system: A498 renal

SMILES: Cc1cc(Cl)cc(NS(=O)(=O)c2ccc(-c3cnc(C4CC4)o3)cc2)c1
- GI50 (SF-268 CNS): 1.27 µM
- TGI (SF-268 CNS): 16.5 µM
- GI50 (NCI-H460 lung): 0.264 µM
- TGI (NCI-H460 lung): 7.22 µM
- GI50 (CCRF-CEM leukemia): 0.172 µM
- TGI (CCRF-CEM leukemia): 17.7 µM
- GI50 (T-47D breast): 0.379 µM
- TGI (T-47D breast): 26.2 µM
- GI50 (SK-MEL-28 melanoma): 1.28 µM
- TGI (SK-MEL-28 melanoma): 19.5 µM
- GI50 (RXF 393 renal): 0.16 µM
- TGI (RXF 393 renal): 0.556 µM
- GI50 (EKVX NSCLC): 0.499 µM
- TGI (EKVX NSCLC): 16.7 µM
- GI50 (PC-3 prostate): 0.205 µM
- TGI (PC-3 prostate): 11.9 µM
- GI50 (OVCAR-3 ovarian): 0.122 µM
- TGI (OVCAR-3 ovarian): 3.44 µM
- GI50 (DU-145 prostate): 0.374 µM
- TGI (DU-145 prostate): 15.1 µM
- GI50 (COLO 205 colon): 0.322 µM
- TGI (COLO 205 colon): 2.71 µM
- GI50 (HT29 colon): 0.313 µM
- TGI (HT29 colon): 12.1 µM
- GI50 (KM12 colon): 0.303 µM
- TGI (KM12 colon): 13.3 µM
- GI50 (MALME-3M melanoma): 0.712 µM
- TGI (MALME-3M melanoma): 22.2 µM
- GI50 (K-562 leukemia): 0.051 µM
- TGI (K-562 leukemia): > 33.2 µM
- GI50 (UACC-62 melanoma): 0.174 µM
- TGI (UACC-62 melanoma): 12 µM
- GI50 (SN12C renal): 0.986 µM
- TGI (SN12C renal): 13.9 µM
- GI50 (HL-60(TB) leukemia): 0.156 µM
- TGI (HL-60(TB) leukemia): 2.57 µM
- GI50 (SK-MEL-5 melanoma): 0.322 µM
- TGI (SK-MEL-5 melanoma): 6.98 µM
- GI50 (SR leukemia): 0.0465 µM
- TGI (SR leukemia): 19.1 µM
- GI50 (SK-OV-3 ovarian): 0.783 µM
- TGI (SK-OV-3 ovarian): 22.6 µM
- GI50 (SF-295 CNS): 0.146 µM
- TGI (SF-295 CNS): 11 µM
- GI50 (TK-10 renal): 6.22 µM
- TGI (TK-10 renal): 23 µM
- GI50 (LOX IMVI melanoma): 0.279 µM
- TGI (LOX IMVI melanoma): 11.1 µM
- GI50 (RPMI-8226 leukemia): 0.232 µM
- TGI (RPMI-8226 leukemia): 4.75 µM
- GI50 (MCF7 breast): 0.0702 µM
- TGI (MCF7 breast): 13.8 µM
- GI50 (HS 578T breast): 0.3 µM
- TGI (HS 578T breast): 14.1 µM
- GI50 (NCI-H522 lung): 0.465 µM
- TGI (NCI-H522 lung): 14.3 µM
- GI50 (HOP-92 NSCLC): 0.151 µM
- TGI (HOP-92 NSCLC): 4.28 µM
- GI50 (HCT-116 colon): 0.347 µM
- TGI (HCT-116 colon): 11.1 µM
- GI50 (MDA-MB-231 breast): 0.656 µM
- TGI (MDA-MB-231 breast): 14.5 µM
- GI50 (HCT-15 colon): 0.106 µM
- TGI (HCT-15 colon): 12.1 µM
- GI50 (IGROV1 ovarian): 0.331 µM
- TGI (IGROV1 ovarian): 13.5 µM
- GI50 (A549 NSCLC): 0.565 µM
- TGI (A549 NSCLC): 16.6 µM
- GI50 (CAKI-1 renal): 0.125 µM
- TGI (CAKI-1 renal): 14.5 µM
- GI50 (SW-620 colon): 0.218 µM
- TGI (SW-620 colon): 15.5 µM
- GI50 (MOLT-4 leukemia): 0.451 µM
- TGI (MOLT-4 leukemia): 31.1 µM
- GI50 (UO-31 renal): 0.798 µM
- TGI (UO-31 renal): 14.8 µM
- GI50 (UACC-257 melanoma): 3.18 µM
- TGI (UACC-257 melanoma): 20.8 µM
- GI50 (786-0 renal): 1.06 µM
- TGI (786-0 renal): 15.9 µM
- GI50 (OVCAR-4 ovarian): 1.07 µM
- TGI (OVCAR-4 ovarian): 19.8 µM
- GI50 (SK-MEL-2 melanoma): 1.05 µM
- TGI (SK-MEL-2 melanoma): 20.9 µM
- GI50 (SF-539 CNS): 0.27 µM
- TGI (SF-539 CNS): 3.2 µM
- GI50 (U251 CNS): 0.436 µM
- TGI (U251 CNS): 15.6 µM
- GI50 (HOP-62 NSCLC): 0.376 µM
- TGI (HOP-62 NSCLC): 16.4 µM
- GI50 (HCC-2998 colon): 0.745 µM
- TGI (HCC-2998 colon): 12.6 µM
- GI50 (SNB-19 CNS): 0.412 µM
- TGI (SNB-19 CNS): 15.6 µM
- GI50 (OVCAR-8 ovarian): 0.716 µM
- TGI (OVCAR-8 ovarian): 18 µM
- GI50 (BT-549 breast): 1.63 µM
- TGI (BT-549 breast): 16.4 µM
- GI50 (NCI/ADR-RES ovarian): 0.161 µM
- TGI (NCI/ADR-RES ovarian): 8.91 µM
- GI50 (M14 melanoma): 0.351 µM
- TGI (M14 melanoma): 14.2 µM
- GI50 (SNB-75 CNS): 0.128 µM
- TGI (SNB-75 CNS): 1.7 µM
- GI50 (NCI-H226 lung): 0.454 µM
- TGI (NCI-H226 lung): 9.89 µM
- GI50 (NCI-H23 lung): 0.52 µM
- TGI (NCI-H23 lung): 13.8 µM
- GI50 (ACHN renal): 0.758 µM
- TGI (ACHN renal): 14.1 µM
- GI50 (OVCAR-5 ovarian): 0.565 µM
- TGI (OVCAR-5 ovarian): 15.5 µM
- GI50 (A498 renal): 0.0726 µM
- TGI (A498 renal): 1.28 µM
